Measured values from patent publication EP2975030B1, “DIHYDROPYRIDAZINE-3,5-DIONE DERIVATIVE” (Chugai Seiyaku Kabushiki Kaisha, priority 2013, dated 2014).

Test system: rat small-intestinal brush border membrane vesicles
Experiment: Inhibitory effect on 33PO4 uptake into rat small-intestinal brush border membrane vesicles (rapid filtration method)
Type: biochemical, Wistar female rat
Conditions: 1 µM test compound; 33PO4 uptake into rat small-intestinal BBMVs, 60 seconds
Method: The ^33PO4 transport activity of the small-intestinal BBMVs was determined by the rapid filtration method. […] Then, ice-cold buffer C (110 mM NaCl, 1 mM KH2PO4, and 10 mM HEPES (pH 7.5)) was added to each reaction mixture, which was immediately suction-filtered through a Millipore filter. The filter was washed with buffer C, and each sample was then dissolved in a liquid scintillator. The amount of ^33PO4 uptake into BBMVs was measured using a liquid scintillation counter. […]

Molecule | Rate of uptake inhibition (%) (1 µM)
(4aS,5S,8R)-1-(3-Fluorobenzyl)-4-hydroxy-N-(5-methyl-2-(trifluoromethyl)furan-3-yl)-2-oxo-2,4a,5,6,7,8-hexahydro-1H-5,8-methanopyrido[1,2-b]pyridazine-3-carboxamide [Example 20] | 21
Cc1cc(NC(=O)C2=C(O)[C@@H]3CCC(C)(C)N3N(Cc3cccc(F)c3)C2=O)c(C(F)(F)F)o1 [Example 4, (4aS)-1-[(3-Fluorophenyl)methyl]-4-hydroxy-7,7-dimethyl-N-[5-methyl-2-(trifluoromethyl)furan-3-yl]-2-oxo-5,6-dihydro-4aH-pyrrolo[1,2-b]pyridazine-3-carboxamide] | 32
CCOC(=O)CCCCCCN1C(=O)C(C(=O)Nc2ccc(C(F)(F)F)cc2-c2ccc(C(F)(F)F)nc2)=C(O)[C@@]2(C)CCCN12 [Example 235, Ethyl 7-[(4aR)-4-hydroxy-4a-methyl-2-oxo-3-[[4-(trifluoromethyl)-2-[6-(trifluoromethyl)pyridin-3-yl]phenyl]carbamoyl]-6,7-dihydro-5H-pyrrolo[1,2-b]pyridazin-1-yl]heptanoate] | 65
CN1N(Cc2ccc(OCC(=O)N3CCOCC3)c(F)c2F)C(=O)C(C(=O)Nc2ccc(C(F)(F)F)cc2-c2cc(C(F)(F)F)ncn2)=C(O)C12CCC2 [Example 336, 8-[[2,3-Difluoro-4-(2-morpholin-2-oxo-ethoxy)phenyl]methyl]-5-hydroxy-9-methyl-7-oxo-N-[4-(trifluoromethyl)-2-[6-(trifluoromethyl)pyrimidin-4yl]phenyl]-8,9-diazaspiro[3.5]non-5-ene-6-carboxamide] | 44
COCCN(C)CCOc1c(-c2cccnc2)cc(CN2C(=O)C(C(=O)Nc3ccc(C(F)(F)F)cc3-c3cc(C(F)(F)F)ncn3)=C(O)C3(CCCC3)N2C)c(F)c1F [Example 440, 9-[[2,3-Difluoro-4-[2-[2-methoxyethyl(methyl)amino]ethoxy]-5-(3-pyridinyl)phenyl]methyl]-6-hydroxy-10-methyl-8-oxo-N-[4-(trifluoromethyl)-2-[6-(trifluoromethyl)pyrimidin-4-yl]phenyl]-9,10-diazaspiro[4.5]dec-6-ene-7-carboxamide] | 28
COc1cccc(-c2cc(C(F)(F)F)ccc2NC(=O)C2=C(O)[C@@]3(C)CCCN3N(Cc3ccc(CCCOCCOCCOCCO)c(F)c3F)C2=O)c1OC [Example 142] | 76
CSc1ccc(-c2cc(C(F)(F)F)ccc2NC(=O)C2=C(O)[C@@]3(C)CCCN3N(Cc3ccc(CCCCCCC(=O)O)c(F)c3F)C2=O)cn1 [Example 115, 7-[4-[[(4aR)-4-Hydroxy-4a-methyl-3-[[2-(6-methylsulfanylpyridin-3-yl)-4-(trifluoromethyl)phenyl]carbamoyl]-2-oxo-6,7-dihydro-5H-pyrrolo[1,2-b]pyridazin-1-yl]methyl]-2,3-difluorophenyl]heptanoate] | 85
CN1N(Cc2ccc(OCCCCOC[C@H](O)CO)c(F)c2F)C(=O)C(C(=O)Nc2ccc(C(F)(F)F)cc2-c2ccc(C(F)(F)F)nc2)=C(O)C12CCC2 [Example 384] | 39
CN1N(Cc2cccc(F)c2F)C(=O)C(C(=O)Nc2ccc(C(F)(F)F)cc2-c2cc(C(F)(F)F)ncn2)=C(O)C12CCCC2 [Example 260] | 70
C[C@]12CCCN1N(Cc1ccccc1Cl)C(=O)C(C(=O)Nc1ccc(C(F)(F)F)cc1-c1ccc(C(F)(F)F)nc1)=C2O [Example 168] | 72
CN1N(Cc2ccc(OCCN3CCOCC3)c(F)c2F)C(=O)C(C(=O)Nc2ccc(C(F)(F)F)cc2-c2ccc(C(F)(F)F)nc2)=C(O)C12CCC2 [Example 282] | 55
CN(C[C@H](O)[C@@H](O)[C@H](O)[C@H](O)CO)C(=O)CCOCCOCCOc1ccc(CN2C(=O)C(C(=O)Nc3ccc(C(F)(F)F)cc3-c3cc(C(F)(F)F)ncn3)=C(O)C3(CCCC3)N2C)c(F)c1F [Example 422] | 29
C[C@]12CCCN1N(Cc1ccc(F)cc1)C(=O)C(C(=O)Nc1ccc(C(F)(F)F)cc1-c1cc(C(F)(F)F)ncn1)=C2O [Example 208] | 90
COc1cccc(-c2cc(C(F)(F)F)ccc2NC(=O)C2=C(O)[C@@]3(C)CCCN3N(Cc3ccc(OC4CCOCC4)c(F)c3F)C2=O)c1OC [Example 158] | 84
COCCN(C)CCOCCOc1ccc(CN2C(=O)C(C(=O)Nc3ccc(C(F)(F)F)cc3-c3cc(C(F)(F)F)ncn3)=C(O)C3(CCCC3)N2C)c(F)c1F [Example 429, 7-[[2,3-Difluoro-4-[2-[2-[2-methoxyethyl(methyl)amino]ethoxy]ethoxy]phenyl]methyl]-10-hydroxy-6-methyl-8-oxo-N-[4-(trifluoromethyl)-2-[6-(trifluoromethyl)pyrimidin-4-yl]phenyl]-6,7-diazaspiro[4.5]dec-9-ene-9-carboxamide] | 41
CC(C)[C@H]1C(O)=C(C(=O)Nc2cc(F)c(Br)c(F)c2)C(=O)N(Cc2cccc(F)c2F)N1C [Example 254] | 58
CN1N(Cc2ccc(OCCN3CCOCC3)c(F)c2F)C(=O)C(C(=O)Nc2ccc(C(F)(F)F)cc2-c2ccc(C(F)(F)F)nc2)=C(O)C12CCCC2 [Example 287] | 47
CN1N(Cc2cccc(F)c2F)C(=O)C(C(=O)Nc2ccc(C(F)(F)F)cc2-c2ccc(C(F)(F)F)nc2)=C(O)C12CCC2 [Example 301] | 79
C[C@]12CCCN1N(Cc1c(F)cccc1F)C(=O)C(C(=O)Nc1ccc(C(F)(F)F)cc1-c1ccc(C(F)(F)F)nc1)=C2O [Example 203] | 91

Molecule | Rate of uptake inhibition (%) (1 µM)
CCN1[C@@H](C(C)(C)C)C(O)=C(C(=O)Nc2cc(F)c(Br)c(F)c2)C(=O)N1Cc1cccc(F)c1F [Example 246] | 52
CSc1ccc(-c2cc(C(F)(F)F)ccc2NC(=O)C2=C(O)C3(CCCC3)N(C)N(Cc3ccc(OCCN4CCOCC4)c(F)c3F)C2=O)cn1 [Example 289] | 55
CCCCCN1C(=O)C(C(=O)Nc2ccc(C(F)(F)F)cc2-c2ccc(C(F)(F)F)nc2)=C(O)[C@@]2(C)CCCN12 [Example 26] | 72
CN1N(Cc2cccc(F)c2F)C(=O)C(C(=O)Nc2ccc(Br)c(C(F)(F)F)n2)=C(O)C12CCC2 [Example 258] | 87
CN1[C@@H](C(C)(C)C)C(O)=C(C(=O)Nc2ccc(C(F)(F)F)cc2-c2ccnc(C#N)c2)C(=O)N1Cc1ccc(OCCN2CCOCC2)c(F)c1F [Example 271] | 60
COc1cc(-c2cc(C(F)(F)F)ccc2NC(=O)C2=C(O)C(C)(C)N(C)N(Cc3cccc(F)c3F)C2=O)cnc1C#N [Example 302] | 79
Cc1cc(NC(=O)C2=C(O)[C@@H]3CC(C)(C)CN3N(Cc3cccc(F)c3)C2=O)c(C(F)(F)F)o1 [Example 3, (4aS)-1-[(3-Fluorophenyl)methyl]-4-hydroxy-6,6-dimethyl-N-[5-methyl-2-(trifluoromethyl)furan-3-yl]-2-oxo-5,7-dihydro-4aH-pyrrolo[1,2-b]pyridazine-3-carboxamide] | 11
C[C@]12CCCN1N(Cc1cccc(F)c1F)C(=O)C(C(=O)Nc1ccc(C(F)(F)F)cc1-c1cnc3ccccc3c1)=C2O [Example 83] | 90
C[C@]12CCCN1N(Cc1cccc(F)c1F)C(=O)C(C(=O)Nc1ccc(C(F)(F)F)cc1-c1ccc(C(F)(F)F)nc1Br)=C2O [Example 85] | 71
COCCOCCOCCCCCCCCN1C(=O)C(C(=O)Nc2ccc(C(F)(F)F)cc2-c2cc(C(F)(F)F)ncn2)=C(O)[C@@]2(C)CCCN12 [Example 236, (4aR)-4-Hydroxy-1-[8-[2-(2-methoxyethoxy)ethoxy]octyl]-4a-methyl-2-oxo-N-[4-(trifluoromethyl)-2-[6-(trifluoromethyl)pyrimidine-4-yl]phenyl]-6,7-dihydro-5H-pyrrolo[1,2-b]pyridazine-3-carboxamide] | 60
CN1N(Cc2cccc(F)c2F)C(=O)C(C(=O)Nc2cc(C(F)(F)F)ccc2-c2ccc(C(F)(F)F)nc2)=C(O)C1(C)C [Example 307] | 41
C[C@]12CCCN1N(Cc1cccc(F)c1F)C(=O)C(C(=O)Nc1ccc(Br)cn1)=C2O [Example 78] | 71
CN1N(Cc2cccc(F)c2F)C(=O)C(C(=O)Nc2ccc(C(F)(F)F)cc2-c2cc(C(F)(F)F)ncn2)=C(O)C12CCC2 [Example 300] | 74
C[C@]12CCCN1N(Cc1cccc(F)c1F)C(=O)C(C(=O)Nc1ccc(Cl)cn1)=C2O [Example 79] | 71
CN(C[C@H](O)[C@@H](O)[C@H](O)[C@H](O)CO)C(=O)CCOCCOCCOCCOc1ccc(CN2C(=O)C(C(=O)Nc3ccc(C(F)(F)F)cc3-c3cc(C(F)(F)F)ncn3)=C(O)C3(CCCC3)N2C)c(F)c1F [Example 423] | 5
C[C@]12CCCN1N(Cc1ccccc1Cl)C(=O)C(C(=O)Nc1ccc(C(F)(F)F)cc1-c1cc(C(F)(F)F)ncn1)=C2O [Example 180] | 75
COc1cncc(-c2cc(C(F)(F)F)ccc2NC(=O)C2=C(O)[C@@]3(C)CCCN3N(Cc3cccc(F)c3F)C2=O)c1 [Example 81] | 74
Cc1ccc(CN2C(=O)C(C(=O)Nc3ccc(C(F)(F)F)cc3-c3cc(C(F)(F)F)ncn3)=C(O)[C@@]3(C)CCCN23)cc1 [Example 187] | 80
Cc1cc(NC(=O)C2=C(O)[C@@H]3CCCCN3N(Cc3c(F)c(F)cc4cc[nH]c34)C2=O)c(C(F)(F)F)o1 [Example 17, (4aS)-1-[(5,6-Difluoro-1H-indol-7-yl)methyl]-4-hvdroxy-N-[5-methyl-2-(trifluoromethyl)furan-3-yl]-2-oxo-5,6,7,8-tetrahydro-4aH-pyrido[1,2-b]pyridazine-3-carboxamide] | 33
